Reference: publication PMC10526274, “Epithelial-Immune Cell Crosstalk Determines the Activation of Immune Cells In Vitro by the Human Cathelicidin LL-37 at Low Physiological Concentrations” (Biomolecules, 2023)

Test system: NKT cells (CD3+CD56+)
Experiment: Multiplex xMAP cytokine levels, NKT cells alone stimulated with LL-37
Assay type: cell-based, human
Details: 1 µM LL-37, 24 h
Description: NKT cells (CD3^+CD56^+) were isolated from PBMCs using the FACSVantageDiVa cell sorter (Becton Dickinson, Franklin Lakes, NJ, USA), equipped with 405, 488, and 643 nm lasers (Supporting Materials, Figure S1). PBMCs were re-suspended in the FACS buffer (PBS containing 0.5% BSA and 2 mM EDTA) and labeled with monoclonal mouse anti-human CD3-APC (clone UCHT1, Beckman Coulter, Pasadena, CA, USA) and mouse anti-human CD56-PE/Cy7 (clone N901, Beckman Coulter) antibodies to isolate NKT cells (CD3^+CD56^+).
Sorted NKT cells were expanded by stimulation with Dynabead Human T-Expander CD3/CD28 magnetic beads (Gibco) in RPMI-1640 medium containing 10% FBS, 1X antibiotic–antimycotic solution, 100 U/mL IL-2 (Gibco), and 50 ng/mL IL-7 (Sci-Store). CD3/CD28 magnetic beads were subsequently removed with a magnet. Expanded NKT cells were washed out of the cytokines and cryopreserved.
Primary blood monocytes, moDCs, and NKT cells were seeded in 600 µL of complete RPMI-1640 with 10% Human AB serum (Capricorn Scientific, Ebsdorfergrund, Germany) and supplemented with 1X antibiotic–antimycotic solution into the wells of 24-well plates at a density of 3–7 × 10^5 cells/well 24 h before the experiment. Then, 24 h later, the medium in each well was replaced by the same medium with 1 µM of LL-37 for the sample wells or fresh medium alone for the control wells, and the permeable inserts with the Caco-2 monolayer with TEER > 400 Ω × cm^2, containing 400 μL of the complete medium in their apical chamber, were immediately placed into the appropriate wells. Also, inserts with the Caco-2 monolayer were placed in cell-free wells of 24-well plates in the same complete RPMI-1640 medium with or without 1 µM of LL-37 as controls. Cells were kept in a CO2-incubator (5% CO2, 37 °C) for another 24 h. Then, culture medium from each well was collected, centrifuged, and frozen at −70 °C.
To quantitatively evaluate a broad spectrum of analytes secreted by human cell cultures at the protein level, multiplex xMAP technology was used. The chosen panel (cat. #HCYTA-60K-PX48, Merck, Darmstadt, Germany) included 48 different magnetic beads with primary antibodies to the following cytokines, chemokines, and growth factors: CCL11 (Eotaxin-1), Flt-3 ligand, CX3CL1 (Fractalkine), sCD40L, FGF-2, EGF, GROα, GM-CSF, G-CSF, IL-1RA, IL-1α, IL-1β, IL-2, IL-3, IL-4, IL-5, IL-6, IL-7, CXCL8 (IL-8), IL-9, IL-10, IL-12p40, IL-12p70, IL-13, IL-15, IL-17A (CTLA8), IL-17E (IL-25), IL-17F, IL-18, IL-22, IL-27, IFNγ, IFNα2, CXCL10 (IP-10), CCL2 (MCP-1), CCL7 (MCP-3), CCL22 (MDC), CXCL9 (MIG), CCL3 (MIP-1α), CCL4 (MIP-1β), CCL5 (RANTES), M-CSF, PDGF-AA, PDGF-AB/BB, TNFα, TNFβ, TGFα, and VEGF-A. The assay was performed in accordance with the manufacturer’s instructions with overnight incubation of the samples with primary antibodies, and the plate was read on a MAGPIX System (Merck) using the xPONENT 4.2 software (Merck). The acquired fluorescence data were analyzed by the MILLIPLEX Analyst v5.1 software (Merck), which realized an advanced curve-fitting algorithm. Levels of the analytes in control and experimental samples were compared with an unpaired two-sample t-test using GraphPad Prism v.8.0.1 (GraphPad Software, Inc., San Diego, CA, USA). The p-values ≤ 0.05 were considered significant.

## LL-37: the only human cathelicidin, host defense antimicrobial peptide of 37 a.a. residues, produced by solid-phase peptide synthesis
n=2, control 0.21
  IL-8 level: 2.37 pg/mL
n=2, control 1.55
  IL-10 level: <1.35↓ pg/ml
n=2, control 1.66
  IL-2 level: 1.16 pg/mL
n=2, control 1.72
  FLT-3L level: 1.67 pg/mL
n=2, control 2.26
  EGF level: 2.26 pg/mL
n=2, control 3.12
  IL-6 level: 1.89 pg/mL
n=2, control 4.7
  MCP-3 level: 4.7 pg/mL
n=2, control 5.04
  MDC level: 2.93 pg/mL
n=2, control 7.06
  IL-9 level: 7.45 pg/mL
n=2, control 10.31
  MIG level: 7.16 pg/mL
n=2, control 11.32
  IL-1a level: 13.27 pg/mL
n=2, control 13.33
  IL-27 level: 29.42 pg/mL
n=2, control 13.41
  IFNg level: 12.33 pg/mL
n=2, control 14.53
  TNFa level: 13.36 pg/mL
n=2, control 18.13
  sCD40L level: <8.15↓ pg/ml
n=2, control 29.25
  FGF-2 level: 21.45 pg/mL
n=2, control 56.07
  IP-10 level: 50.77 pg/mL
n=2, control 66.65
  M-GSF level: 60.35 pg/mL
n=2, control 67.9
  MIP-1b level: 58.14 pg/mL
n=2, control 76.24
  GM-CSF level: 76.06 pg/mL
n=2, control 251.23
  IL-13 level: 237.88 pg/mL
n=2, control 323.09
  IL-5 level: 285.93 pg/mL
n=2, control 1182
  RANTES level: 1237 pg/mL
n=2, control 1355
  MIP-1a level: 1113 pg/mL
n=2, control <0.30
  IL-7 level: <0.30↓ pg/ml
  IL-18 level: <0.30↓ pg/ml
n=2, control <0.55
  IL-3 level: <0.55↓ pg/ml
n=2, control <0.66
  GROa level: <0.66↓ pg/ml
n=2, control <0.68
  TGF-a level: <0.68↓ pg/ml
n=2, control <0.70
  IL-17A level: <0.70↓ pg/ml
n=2, control <0.74
  IL-1b level: <0.74↓ pg/ml
n=2, control <0.87
  IL-4 level: <0.87↓ pg/ml
n=2, control <0.93
  IL-1RA level: <0.93↓ pg/ml
  TNFb level: 1 pg/mL
n=2, control <1.26
  VEGFa level: <1.26↓ pg/ml
n=2, control <1.35
  MCP-1 level: <1.35↓ pg/ml
n=2, control <1.54
  IL-15 level: <1.54↓ pg/ml
n=2, control <1.71
  IL-12 (p70) level: <1.71↓ pg/ml
n=2, control <2.32
  G-CSF level: <2.32↓ pg/ml
n=2, control <2.91
  Eotaxin level: <2.91↓ pg/ml
n=2, control <3.33
  IL-12 (p40) level: <3.33↓ pg/ml
n=2, control <3.88
  IFNa2 level: <3.88↓ pg/ml
n=2, control <5.00
  PDGF-AB/BB level: <5.00↓ pg/ml
n=2, control <6.49
  PDGF-AA level: <6.49↓ pg/ml
n=2, control <6.61
  IL-22 level: <6.61↓ pg/ml
n=2, control <12.19
  IL-17F level: <12.19↓ pg/ml
n=2, control <18.09
  Fractalkine level: <18.09↓ pg/ml
n=2, control <19.43
  IL-17E/IL-25 level: <19.43↓ pg/ml
